Laboratory results as given in ChEMBL document CHEMBL2424541, “Anti-inflammatory effects of extracellular cyclosporins are exclusively mediated by CD147” (J Med Chem, 2013).
Each block holds one compound with its values, some of them ahead of it. Calls of active or inactive are those of the source. No cut-off for these calls is given here.

Experiments:
[1] = (§1) Cellular uptake in human Jurkat T cells assessed as displacemnet of [O-(2-acetamido)-D-serine]8-cyclosporine N-{(5-aminopentyl)-[2,3,6,7-tetrahydro-11-oxo-1H,5H,11Hbenzopyrano(6,7,8-ij)quinolizine-10-carboxyl amide] from intracellular compartments after 90 mins by flow cytometric analysis; assay type: ADME, cell-based; conditions: 1.5 h
[2] = target: T1, Peptidyl-prolyl cis-trans isomerase A (Homo sapiens, UniProt P62937); test: Inhibition of CypA PPIase activity (unknown origin) using Glt-(Ala)n-Pro-Phe-4-nitroanilides as substrate
Target sequence in this assay (P62937 whole entry): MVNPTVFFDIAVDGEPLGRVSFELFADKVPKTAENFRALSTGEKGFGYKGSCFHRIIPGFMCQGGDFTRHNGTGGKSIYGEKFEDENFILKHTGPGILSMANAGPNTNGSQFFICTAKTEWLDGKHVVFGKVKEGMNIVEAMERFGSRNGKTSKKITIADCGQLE

[3] = Inhibition of calcineurin phosphatase activity (unknown origin) assessed as R2 phosphopeptide dephosphorylation after 30 mins by malachite green staining assay in presence of calmodulin and CypA
[4] = target: T1, Peptidyl-prolyl cis-trans isomerase A; conditions: 1 uM
Target sequence in this assay (P62937 whole entry, looked up): as the sequence (P62937 whole entry) above
Description: Inhibition of recombinant human CypA-mediated leukocyte migration from mouse bone marrow at 1 uM after 2 hrs

[5] = target: T1, Peptidyl-prolyl cis-trans isomerase A; conditions: HeLa, 2 uM
Target sequence in this assay (P62937 whole entry, looked up): as the sequence (P62937 whole entry) above
Description: Inhibition of CypA-mediated ERK phosphorylation in serum-starved human HeLa cells at 2 uM after 5 mins by Western blotting analysis

[6] = system: Mus musculus; test: In vivo inhibition of extracellular cyclophilin-mediated neutrophils recruitment in peritoneal fluid of thioglycollate challenged C57BL6 mouse peritonitis model at 20 mg/kg, ip administered 3 hrs before thioglycollate challenge measured after 18 hrs; assay type: functional, organism-based; set-up: dose 20 mg/kg
[7] = as §1, with “compartments at 50 fold excess” for “compartments”; assay type: ADME, cell-based; conditions: 1.5 h
[8] = system: Mus musculus; test: In vivo inhibition of extracellular cyclophilin-mediated ear swelling in TNCB challenged C57BL6 mouse allergic contact hypersensitivity model at 4 mg/kg, ip bid administered on day 4 to 6 measured after 24 hrs; assay type: functional, organism-based; set-up: dose 4 mg/kg
[9] = target: T1, Peptidyl-prolyl cis-trans isomerase A; conditions: Spleen, T-cell, 1 uM
Target sequence in this assay (P62937 whole entry, looked up): as the sequence (P62937 whole entry) above
Description: Inhibition of recombinant human CypA-mediated PMA/ionomycin-induced CD3+ T cell migration from mouse spleen at 1 uM after 2 hrs

[10] = system: Leukocyte; test: Effect on fmlp-induced CD147-deficient mouse leukocytes migration from bone marrow; assay type: functional
[11] = system: Mus musculus; test: In vivo inhibition of extracellular cyclophilin-mediated ear swelling in CD147-deficient TNCB challenged C57BL6 mouse at 4 mg/kg, ip bid administered on day 4 to 6; assay type: functional, organism-based; set-up: dose 4 mg/kg
[12] = target: T1, Peptidyl-prolyl cis-trans isomerase A; conditions: myeloid, 1 uM
Target sequence in this assay (P62937 whole entry, looked up): as the sequence (P62937 whole entry) above
Description: Inhibition of recombinant human CypA-mediated CD11b+ myeloid cell migration from mouse bone marrow at 1 uM after 2 hrs

[13] = system: Mus musculus; test: In vivo inhibition of extracellular cyclophilin-mediated CD3+ T cells infiltration into TNCB challenged ear in CD147-deficient C57BL6 mouse allergic contact hypersensitivity model at 4 mg/kg, ip bid administered on day 4 to 6 prior to TNCB challenge by immunohistochemical analysis; assay type: functional, organism-based; set-up: dose 4 mg/kg; conditions: T-cell
[14] = system: Mus musculus; test: In vivo inhibition of extracellular cyclophilin-mediated IL-6 secretion in peritoneal fluid in thioglycollate challenged C57BL6 mouse peritonitis model at 20 mg/kg, ip administered for 3 hrs before thioglycollate challenge by ELISA; assay type: functional, organism-based; set-up: dose 20 mg/kg
[15] = system: Leukocyte; test: Effect on fmlp-induced wild type mouse leukocytes migration from bone marrow; assay type: functional
[16] = system: Mus musculus; test: In vivo inhibition of extracellular cyclophilin-mediated CD11b+ myeloid cells infiltration into TNCB challenged ear in CD147-deficient C57BL6 mouse allergic contact hypersensitivity model at 4 mg/kg, ip bid administered on day 4 to 6 prior to TNCB challenge by immunohistochemical analysis; assay type: functional, organism-based; set-up: dose 4 mg/kg
[17] = system: Mus musculus; test: In vivo inhibition of extracellular cyclophilin-mediated neutrophil recruitment in peritoneal fluid in thioglycollate challenged CD147-deficient C57BL6 mouse peritonitis model at 20 mg/kg, ip administered 3 hrs before thioglycollate challenge measured after 18 hrs; assay type: functional, organism-based; set-up: dose 20 mg/kg
[18] = species on record: Homo sapiens; test: Inhibition of calcineurin phosphatase activity (unknown origin) assessed as R2 phosphopeptide dephosphorylation up to 10 uM after 30 mins by malachite green staining assay in presence of calmodulin and CypA
[19] = system: Mus musculus; test: In vivo inhibition of extracellular cyclophilin-mediated monocytes recruitment in peritoneal fluid in thioglycollate challenged CD147-deficient C57BL6 mouse peritonitis model at 20 mg/kg, ip administered 3 hrs before thioglycollate challenge measured after 18 hrs; assay type: functional, organism-based; set-up: dose 20 mg/kg
[20] = system: Leukocyte; test: Effect on FCS-induced wild type mouse leukocytes migration from bone marrow; assay type: functional
[21] = system: Mus musculus; test: In vivo inhibition of extracellular cyclophilin-mediated CD3+ T cells infiltration into TNCB challenged ear in C57BL6 mouse allergic contact hypersensitivity model at 4 mg/kg, ip bid administered on day 4 to 6 prior to TNCB challenge by immunohistochemical analysis; assay type: functional, organism-based; set-up: dose 4 mg/kg; conditions: T-cell
[22] = system: Leukocyte; test: Effect on FCS-induced CD147-deficient mouse leukocytes migration from bone marrow; assay type: functional
[23] = target: T1, Peptidyl-prolyl cis-trans isomerase A; conditions: 1 uM; remark: listed apart in the source
Target sequence in this assay (P62937 whole entry, looked up): as the sequence (P62937 whole entry) above
Description: Inhibition of recombinant human CypA-mediated CD147-deficient leukocyte migration from mouse bone marrow at 1 uM after 2 hrs

[24] = system: Mus musculus; test: In vivo inhibition of extracellular cyclophilin-mediated monocytes recruitment in peritoneal fluid of thioglycollate challenged C57BL6 mouse peritonitis model at 20 mg/kg, ip administered 3 hrs before thioglycollate challenge measured after 18 hrs; assay type: functional, organism-based; set-up: dose 20 mg/kg
[25] = system: Mus musculus; test: In vivo inhibition of extracellular cyclophilin-mediated MMP-9 secretion in peritoneal fluid in thioglycollate challenged C57BL6 mouse peritonitis model at 20 mg/kg, ip administered for 3 hrs before thioglycollate challenge by gelatin zymographic analysis; assay type: functional, organism-based; set-up: dose 20 mg/kg
[26] = target: Peptidyl-prolyl cis-trans isomerase C (Homo sapiens, UniProt P45877); test: Inhibition of CypC PPIase activity (unknown origin)
[27] = system: Mus musculus; test: In vivo inhibition of extracellular cyclophilin-mediated CD11b+ myeloid cells infiltration into TNCB challenged ear in C57BL6 mouse allergic contact hypersensitivity model at 4 mg/kg, ip bid administered on day 4 to 6 prior to TNCB challenge by immunohistochemical analysis; assay type: functional, organism-based; set-up: dose 4 mg/kg

Peptidyl-prolyl cis-trans isomerase C, sequence (P45877 whole entry): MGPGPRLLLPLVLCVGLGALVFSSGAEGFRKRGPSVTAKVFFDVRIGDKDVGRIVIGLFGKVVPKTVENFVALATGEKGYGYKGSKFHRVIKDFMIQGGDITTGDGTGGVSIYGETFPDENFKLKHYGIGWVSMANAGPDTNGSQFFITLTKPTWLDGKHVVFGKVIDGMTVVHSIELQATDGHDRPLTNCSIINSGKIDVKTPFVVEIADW

SMILES: CC[C@@H]1NC(=O)[C@H]([C@H](O)[C@H](C)Cc2nc3ccc(C(=O)O)cc3[nH]2)N(C)C(=O)[C@H](C(C)C)N(C)C(=O)[C@H](CC(C)C)N(C)C(=O)[C@H](CC(C)C)N(C)C(=O)[C@@H](C)NC(=O)[C@H](C)NC(=O)[C@H](CC(C)C)N(C)C(=O)[C@H](C(C)C)NC(=O)[C@H](CC(C)C)N(C)C(=O)CN(C)C1=O
- inhibition [4]: Active
- inhibition [5]: Active
- inhibition [6]: Active
- Drug uptake [7]: Not Active
- inhibition [8]: Active
- inhibition [9]: Active
- Activity [10]: inactive
- inhibition [11]: inactive
- inhibition [12]: Active
- inhibition [13]: inactive
- inhibition [14]: Active
- Activity [15]: inactive
- inhibition [16]: inactive
- inhibition [17]: inactive
- inhibition [18]: inactive
- inhibition [19]: inactive
- Activity [20]: inactive
- inhibition [21]: Active
- Activity [22]: inactive
- Ki [2]: 10.7 nM
- inhibition [23]: inactive
- inhibition [24]: Active
- inhibition [25]: Active
- Ki [26]: 118 nM
- inhibition [27]: Active

SMILES: CC[C@@H]1NC(=O)[C@H]([C@H](O)[C@H](C)CC2=Nc3ccccc3CN2)N(C)C(=O)[C@H](C(C)C)N(C)C(=O)[C@H](CC(C)C)N(C)C(=O)[C@H](CC(C)C)N(C)C(=O)[C@@H](C)NC(=O)[C@H](C)NC(=O)[C@H](CC(C)C)N(C)C(=O)[C@H](C(C)C)NC(=O)[C@H](CC(C)C)N(C)C(=O)CN(C)C1=O
- inhibition [18]: inactive
- Drug uptake [1]: Active

SMILES: CC[C@@H]1NC(=O)[C@H]([C@H](O)[C@H](C)Cc2nc3ccc(C(C)C)cc3[nH]2)N(C)C(=O)[C@H](C(C)C)N(C)C(=O)[C@H](CC(C)C)N(C)C(=O)[C@H](CC(C)C)N(C)C(=O)[C@@H](C)NC(=O)[C@H](C)NC(=O)[C@H](CC(C)C)N(C)C(=O)[C@H](C(C)C)NC(=O)[C@H](CC(C)C)N(C)C(=O)CN(C)C1=O
- Drug uptake [1]: Active
- Ki [2]: 43.9 nM
- IC50 [3]: > 10 µM

SMILES: CC[C@@H]1NC(=O)[C@H]([C@H](O)[C@H](C)Cc2nc3ccc(C)cc3[nH]2)N(C)C(=O)[C@H](C(C)C)N(C)C(=O)[C@H](CC(C)C)N(C)C(=O)[C@H](CC(C)C)N(C)C(=O)[C@@H](C)NC(=O)[C@H](C)NC(=O)[C@H](CC(C)C)N(C)C(=O)[C@H](C(C)C)NC(=O)[C@H](CC(C)C)N(C)C(=O)CN(C)C1=O
- Drug uptake [1]: Active
- Ki [2]: 12.4 nM
- IC50 [3]: 3.4 µM

SMILES: CC[C@@H]1NC(=O)[C@H]([C@H](O)[C@H](C)Cc2nc3ccc(C(=O)OC)cc3[nH]2)N(C)C(=O)[C@H](C(C)C)N(C)C(=O)[C@H](CC(C)C)N(C)C(=O)[C@H](CC(C)C)N(C)C(=O)[C@@H](C)NC(=O)[C@H](C)NC(=O)[C@H](CC(C)C)N(C)C(=O)[C@H](C(C)C)NC(=O)[C@H](CC(C)C)N(C)C(=O)CN(C)C1=O
- Drug uptake [1]: Active
- Ki [2]: 11.8 nM
- IC50 [3]: 6.9 µM

The next lines start with the values.

- Drug uptake [1]: Active
- Ki [2]: 36.6 nM
- IC50 [3]: 4.5 µM
SMILES: CC[C@@H]1NC(=O)[C@H]([C@H](O)[C@H](C)Cc2nc3ccccc3s2)N(C)C(=O)[C@H](C(C)C)N(C)C(=O)[C@H](CC(C)C)N(C)C(=O)[C@H](CC(C)C)N(C)C(=O)[C@@H](C)NC(=O)[C@H](C)NC(=O)[C@H](CC(C)C)N(C)C(=O)[C@H](C(C)C)NC(=O)[C@H](CC(C)C)N(C)C(=O)CN(C)C1=O

- Drug uptake [1]: Active
- IC50 [3]: 1.2 µM
SMILES: CC[C@@H]1NC(=O)[C@H]([C@H](O)[C@H](C)Cc2nc3ccccc3[nH]2)N(C)C(=O)[C@H](C(C)C)N(C)C(=O)[C@H](CC(C)C)N(C)C(=O)[C@H](CC(C)C)N(C)C(=O)[C@@H](C)NC(=O)[C@H](C)NC(=O)[C@H](CC(C)C)N(C)C(=O)[C@H](C(C)C)NC(=O)[C@H](CC(C)C)N(C)C(=O)CN(C)C1=O

- Drug uptake [1]: Active
- IC50 [3]: 4.6 µM
SMILES: CC[C@@H]1NC(=O)[C@H]([C@H](O)[C@H](C)Cc2nc3ccccc3c(=O)[nH]2)N(C)C(=O)[C@H](C(C)C)N(C)C(=O)[C@H](CC(C)C)N(C)C(=O)[C@H](CC(C)C)N(C)C(=O)[C@@H](C)NC(=O)[C@H](C)NC(=O)[C@H](CC(C)C)N(C)C(=O)[C@H](C(C)C)NC(=O)[C@H](CC(C)C)N(C)C(=O)CN(C)C1=O
